A short description of series [1]: Inhibition of acyl-coA cholesterol O-acyltransferase (unknown origin). Further details: species or system Homo sapiens.
For another series, the system named is Thoracic aorta. Briefly: Inodilatory activity in Wistar Rattus norvegicus (rat) thoracic aorta assessed as inhibition of phenylephrine-induced contraction. It counts as functional, tissue-based.
The next series has as its system Mus musculus. Briefly: Anti-inflammatory activity in Mus musculus (mouse) assessed as inhibition of arachidonic acid-induced ear edema at 30 umol/kg, po relative to control. It counts as functional.
Series [2] in a line: Half life in Rattus norvegicus (rat). The class given is ADME, organism-based. The note with it: in vivo.

`CCCCCCn1nc(-c2ccccc2)c(-c2ccccc2)cc1=O`: the IC50 (usually the concentration at which inhibition is half-maximal) in series [1] is 57 µM. As for `CS(=O)(=O)Nc1ccc(C2=NN(c3ccccc3)C(=O)CC2)cc1`, the half-inhibitory concentration (IC50) in the series with Thoracic aorta was 0.08 µM.

As to `CCOc1ccc(C2=NN(CCCCOc3ccc(C4=NNC(=O)CC4C)cc3)C(=O)C3CC=CCC23)cc1OCC` (stereo not given), the inhibition in vivo (usually the percentage by which the read-out fell short of the control) at 30 µmol/kg in the series with Mus musculus is 46%. Still for that read-out and setting: then `COc1ccc(C2=NN(CCCCOc3ccc(C4=NNC(=O)CC4C)cc3)C(=O)C3CC=CCC23)cc1Cl` (stereo not given), with 46%. In the case of `O=C(O)COc1cccc2c1CC[C@H](Cn1nc(C(c3ccccc3)c3ccccc3)ccc1=O)C2`, the half-life (usually the time needed for the level to fall by half in the phase considered) in series [2] was 4.3 h.
